Patent US20170152239A1, “BENZAMIDE AND HETEROBENZAMIDE COMPOUNDS” (PFIZER INC., priority 2012, published 2017)

Key:
Format in all cases: biochemical
[1] = target: WT EZH2 (EZH2 4 protein complex: EZH2, EED, SUZ12, RbAp48) (Homo sapiens, UniProt Q15910); test: WT EZH2 nucleosome assay; settings: compound at 20 μM; nucleosome assay
Method in brief: (§1)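 IC50 values come from 4-parameter fits of 11-point dose responses, with % effect also given at 20 μM. Reactions held HeLa oligonucleosomes (25 μg/mL), rH1 (50 nM), 1.5 μM tritiated SAM and 5 nM enzyme complex at pH 8.5 Tris/DTT/Tween; stopped by TCA after 60 min, filtered and scintillation-counted.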

[2] = target: WT EZH2 (EZH2 4 protein complex: EZH2, EED, SUZ12, RbAp48) (Homo sapiens, UniProt O75530+Q09028+Q15022+Q15910); test: WT EZH2 nucleosome assay; settings: nucleosome assay, 5 nM EZH2 4-protein complex, 1.5 μM SAM; read-out: WT EZH2 IC50
Method in brief: as §1

EZH2PRC2 mutant Y641N = EZH2PRC2 mutant Y641N (Homo sapiens, UniProt Q15910, Y641N); test: EZH2PRC2 mutant Y641N nucleosome assay; settings: read-out: EZH2PCR2 Mutant Y641N IC50
Method: Nucleosome Assay Protocol:
A. Compound preparation • 1. Prepare 10 mM stock solutions in 100% DMSO from solid material • 2. Serial dilute 10 mM compound stocks either 2 or 3-fold in 100% DMSO to generate compounds for 11 point dose response
B. Reagent preparation • 1. Prepare 1× assay buffer containing 100 mM Tris pH 8.5, 4 mM DTT and 0.01% Tween-20 • 2. Dilute purified HeLA oligonucleosomes and recombinant histone H1 (New England Biolabs) in assay buffer to 1.67×. • 3. Dilute EZH2 4 protein complex (EZH2, EED, SUZ12, RbAp48) to 3.5× in assay buffer • 4. Prepare 10×^3H SAM solution in assay buffer using 0.94 μCi/well of radioactive SAM (Perkin Elmer) and sufficient non-labeled SAM (Sigma) for 1.5 μM final concentration. • 5. Dilute TCA to 20% in DI water
C. Enzyme reaction • 1. Final reaction conditions are 5 nM EZH2 4-protein complex, 1.5 μM SAM, 25 μg/mL oligonucleosomes, 50 nM rH1 in a 50 μl reaction volume. • 2. Add 1 μl of diluted compound to the assay plate (96-well V-bottom polypropylene plates) or 1 μl of DMSO for control wells. • 3. Add 30 μl of nucleosomes to the assay plate • 4. Add 14 μl of EZH2 4 protein complex to the assay plate • 5. Add 5 μl of ^3H SAM to start the reaction. • 6. Stop the reaction after 60 minutes with the addition of 100 μl of 20% TCA • 7. Transfer 150 μl of quenched reaction into a prepared filterplate (Millipore #MSIPN4B10) • 8. Apply vacuum to the filterplate to filter the reaction mix through the membrane. • 9. Wash the filterplate with 8×200 μl of PBS, blot dry and dry in an oven for 30 minutes • 10. Add 50 μl of microscint-20 scintillation fluid (Perkin Elmer) to each well, wait 30 minutes and count on a liquid scintillation counter.
D. Data analysis • 1. IC50 values were determined by fitting the data to a 4-parameter IC50 equation using proprietary curve fitting software.
Wild type (WT) EZH2% Effect at 20 μM and IC50 values (μM) generated in WT EZH2 or EZH2PRC2 mutant Y641N nucleosome assays are provided in Table 3 below. A blank entry in the table indicates the data was not generated in that assay.

Chain of WT EZH2 (EZH2 4 protein complex: EZH2, EED, SUZ12, RbAp48) (Homo sapiens, UniProt Q15910) (Q15910 whole entry): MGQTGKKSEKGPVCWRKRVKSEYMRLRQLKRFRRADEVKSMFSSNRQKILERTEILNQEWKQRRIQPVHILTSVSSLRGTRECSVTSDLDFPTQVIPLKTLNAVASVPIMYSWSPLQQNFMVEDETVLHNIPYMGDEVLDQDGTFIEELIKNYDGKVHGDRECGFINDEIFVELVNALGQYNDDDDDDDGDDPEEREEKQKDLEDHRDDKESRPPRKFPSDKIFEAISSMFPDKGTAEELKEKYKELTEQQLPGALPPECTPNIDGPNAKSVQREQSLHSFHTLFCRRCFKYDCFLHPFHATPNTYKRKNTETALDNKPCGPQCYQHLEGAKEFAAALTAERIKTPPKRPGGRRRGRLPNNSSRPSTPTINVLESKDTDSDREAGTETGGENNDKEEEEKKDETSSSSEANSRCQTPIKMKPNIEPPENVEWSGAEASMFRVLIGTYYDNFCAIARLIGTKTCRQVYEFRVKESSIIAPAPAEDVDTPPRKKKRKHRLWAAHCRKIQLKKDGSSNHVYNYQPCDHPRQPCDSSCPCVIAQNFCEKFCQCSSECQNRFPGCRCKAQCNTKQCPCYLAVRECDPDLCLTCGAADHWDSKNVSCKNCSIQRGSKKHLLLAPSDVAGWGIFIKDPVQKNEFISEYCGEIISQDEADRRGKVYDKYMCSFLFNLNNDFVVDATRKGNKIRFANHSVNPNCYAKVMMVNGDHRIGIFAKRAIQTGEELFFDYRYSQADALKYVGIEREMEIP
Chain of WT EZH2 (EZH2 4 protein complex: EZH2, EED, SUZ12, RbAp48) (Homo sapiens, UniProt Q15910) (O75530 whole entry partner): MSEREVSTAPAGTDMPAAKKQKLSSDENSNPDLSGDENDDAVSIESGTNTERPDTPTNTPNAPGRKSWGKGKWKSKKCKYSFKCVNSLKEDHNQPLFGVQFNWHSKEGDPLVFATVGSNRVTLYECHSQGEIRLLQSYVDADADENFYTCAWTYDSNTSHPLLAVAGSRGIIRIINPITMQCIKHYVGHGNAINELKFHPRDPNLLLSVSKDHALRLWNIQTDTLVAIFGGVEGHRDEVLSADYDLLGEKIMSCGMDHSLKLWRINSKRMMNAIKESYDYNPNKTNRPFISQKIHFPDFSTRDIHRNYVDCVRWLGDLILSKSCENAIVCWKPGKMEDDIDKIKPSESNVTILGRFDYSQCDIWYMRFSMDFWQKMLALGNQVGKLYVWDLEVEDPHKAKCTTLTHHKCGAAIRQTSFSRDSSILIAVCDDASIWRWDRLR
Chain of WT EZH2 (EZH2 4 protein complex: EZH2, EED, SUZ12, RbAp48) (Homo sapiens, UniProt Q15910) (Q15022 whole entry partner): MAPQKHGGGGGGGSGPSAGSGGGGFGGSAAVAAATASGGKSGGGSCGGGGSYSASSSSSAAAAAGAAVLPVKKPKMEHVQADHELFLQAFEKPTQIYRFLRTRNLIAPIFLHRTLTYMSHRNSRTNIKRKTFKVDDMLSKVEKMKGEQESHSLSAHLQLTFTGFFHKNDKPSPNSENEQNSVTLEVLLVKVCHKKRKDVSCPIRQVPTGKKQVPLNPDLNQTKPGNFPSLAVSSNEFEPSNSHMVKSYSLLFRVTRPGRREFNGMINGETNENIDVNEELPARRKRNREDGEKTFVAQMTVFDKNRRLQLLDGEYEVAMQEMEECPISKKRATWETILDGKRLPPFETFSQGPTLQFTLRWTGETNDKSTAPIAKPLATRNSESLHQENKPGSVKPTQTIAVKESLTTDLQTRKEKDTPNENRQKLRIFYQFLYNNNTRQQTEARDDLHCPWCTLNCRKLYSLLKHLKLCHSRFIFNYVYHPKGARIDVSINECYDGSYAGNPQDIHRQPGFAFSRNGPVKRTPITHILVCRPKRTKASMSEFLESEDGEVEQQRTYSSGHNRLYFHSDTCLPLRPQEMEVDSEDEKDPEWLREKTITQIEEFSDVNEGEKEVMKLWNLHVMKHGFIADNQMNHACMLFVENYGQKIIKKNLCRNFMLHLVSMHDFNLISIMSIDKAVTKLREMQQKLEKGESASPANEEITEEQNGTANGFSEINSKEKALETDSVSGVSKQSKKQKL
Chain of WT EZH2 (EZH2 4 protein complex: EZH2, EED, SUZ12, RbAp48) (Homo sapiens, UniProt Q15910) (Q09028 whole entry partner): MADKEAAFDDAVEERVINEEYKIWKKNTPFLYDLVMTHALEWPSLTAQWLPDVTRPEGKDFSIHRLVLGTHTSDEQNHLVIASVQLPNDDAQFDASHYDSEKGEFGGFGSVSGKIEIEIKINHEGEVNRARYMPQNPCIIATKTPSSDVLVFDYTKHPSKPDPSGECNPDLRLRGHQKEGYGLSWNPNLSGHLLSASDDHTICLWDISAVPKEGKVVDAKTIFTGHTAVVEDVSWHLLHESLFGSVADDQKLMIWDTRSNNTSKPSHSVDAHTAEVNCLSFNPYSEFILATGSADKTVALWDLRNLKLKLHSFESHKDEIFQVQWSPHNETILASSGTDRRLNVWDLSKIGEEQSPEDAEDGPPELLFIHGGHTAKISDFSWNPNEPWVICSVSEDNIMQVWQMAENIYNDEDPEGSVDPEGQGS
Chain of WT EZH2 (EZH2 4 protein complex: EZH2, EED, SUZ12, RbAp48) (Homo sapiens, UniProt O75530+Q09028+Q15022+Q15910) (Q15910 whole entry): as the sequence (Q15910 whole entry) above
Chain of WT EZH2 (EZH2 4 protein complex: EZH2, EED, SUZ12, RbAp48) (Homo sapiens, UniProt O75530+Q09028+Q15022+Q15910) (O75530 whole entry partner): as the sequence (O75530 whole entry partner) above
Chain of WT EZH2 (EZH2 4 protein complex: EZH2, EED, SUZ12, RbAp48) (Homo sapiens, UniProt O75530+Q09028+Q15022+Q15910) (Q15022 whole entry partner): as the sequence (Q15022 whole entry partner) above
Chain of WT EZH2 (EZH2 4 protein complex: EZH2, EED, SUZ12, RbAp48) (Homo sapiens, UniProt O75530+Q09028+Q15022+Q15910) (Q09028 whole entry partner): as the sequence (Q09028 whole entry partner) above
Chain of EZH2PRC2 mutant Y641N (Q15910 whole entry Y641N): as the sequence (Q15910 whole entry) above, with Y641N counted along it
Chain of EZH2PRC2 mutant Y641N (O75530 whole entry partner): as the sequence (O75530 whole entry partner) above
Chain of EZH2PRC2 mutant Y641N (Q15022 whole entry partner): as the sequence (Q15022 whole entry partner) above
Chain of EZH2PRC2 mutant Y641N (Q09028 whole entry partner): as the sequence (Q09028 whole entry partner) above

SMILES | % Effect in WT EZH2 at 20 μM [1] | IC50 [2] | IC50 (EZH2PRC2 mutant Y641N)
Cc1cc(C)c(CNC(=O)c2cc(-c3cnn(C)c3)cc(OC(C)C)c2Cl)c(=O)[nH]1 [Example 26, 2-chloro-N-[(4,6-dimethyl-2-oxo-1,2-dihydropyridin-3-yl)methyl]-3-isopropoxy-5-(1-methyl-1H-pyrazol-4-yl)benzamide] | 93.705% | 0.93 µM | –
Cc1cc(C)c(CNC(=O)c2cc(-c3cnn(C)c3)nc(OC(C)C)c2Cl)c(=O)[nH]1 [Example 33, 3-chloro-N-[(4,6-dimethyl-2-oxo-1,2-dihydropyridin-3-yl)methyl]-2-isopropoxy-6-(1-methyl-1H-pyrazol-4-yl)isonicotinamide] | 92.965% | 0.78 µM | –
Cc1cc(C)c(CNC(=O)c2nc(Cl)nc(N3CCC[C@@H]3C)c2C)c(=O)[nH]1 [Example 41, 2-chloro-N-[(4,6-dimethyl-2-oxo-1,2-dihydropyridin-3-yl)methyl]-5-methyl-6-[(2S)-2-methylpyrrolidin-1-yl]pyrimidine-4-carboxamide] | – | 1.1 µM | 7.81 µM
COCc1cc(C)[nH]c(=O)c1CNC(=O)c1cc(Cl)cc(-c2ccnn2C)c1C [Example 50, 5-chloro-N-{[4-(methoxymeth-yl)-6-methyl-2-oxo-1,2-dihydropyridin-3-yl]methyl}-2-methyl-3-(1-methyl-1H-pyrazol-5-yl)benzamide] | – | 2.05 µM | 26.7 µM
Cc1cc(C)c(CNC(=O)c2ncnc(N3CCN(C)C[C@@H]3C)c2C)c(=O)[nH]1 [Example 67, N-[(4,6-dimethyl-2-oxo-1,2-dihydropyridin-3-yl)methyl]-6-[(2S)-2,4-dimethylpipera-zin-1-yl]-5-methylpyrimi-dine-4-carboxamide] | – | 4.93 µM | 23.5 µM
Cc1cc(-c2cc(Cl)cc(C(=O)NCc3c(C)cc(C)[nH]c3=O)c2C)n(C)n1 [Example 77, 5-chloro-N-[(4,6-dimethyl-2-oxo-1,2-dihydropyridin-3-yl)methyl]-3-(1,3-dimethyl-1H-pyrazol-5-yl)-2-methylbenz-amide] | 69.743% | 7.03 µM | –
Cc1cc(C)c(CNC(=O)c2ncnc(OC(C)C)c2Cl)c(=O)[nH]1 [Example 85] | 69.248% | 9.12 µM | –
Cc1cc(C)c(CNC(=O)c2nc(N3CCCC3)nc(N3CCC[C@@H]3C)c2C)c(=O)[nH]1 [Example 88, N-[(4,6-dimethyl-2-oxo-1,2-dihydropyridin-3-yl)methyl]-5-methyl-6-[(2S)-2-methylpyrroli-din-1-yl]-2-pyrrolidin-1-ylpyrimidine-4-carboxamide] | – | 9.82 µM | 34.8 µM
Cc1cc(C)c(CNC(=O)c2ncnc(N3[C@@H](C)COC[C@@H]3C)c2C)c(=O)[nH]1 [Example 89, 6-[(3S,5S)-3,5-dimethylmorph-olin-4-yl]-N-[(4,6-dimethyl-2-oxo-1,2-dihydropyridin-3-yl)methyl]-5-methylpyrimi-dine-4-carboxamide] | – | 11 µM | 82.4 µM
Cc1cc(C)c(CNC(=O)c2ccnc(N3CCC[C@H]3C)c2Cl)c(=O)[nH]1 [Example 106, 3-chloro-N-[(4,6-dimethyl-2-oxo-1,2-dihydropyridin-3-yl)methyl]-2-[(2R)-2-methylpyrrolidin-1-yl]isonicotin-amide] | – | 19.8 µM | 86 µM
COc1cc(OC)c(Cl)c(C(=O)NCc2c(C)cc(C)[nH]c2=O)c1Cl [Example 126, 2,6-dichloro-N-[(4,6-dimethyl-2-oxo-1,2-dihydropyridin-3-yl)methyl]-3,5-dimethoxybenz-amide] | 38.121% | 52 µM | –
CCn1ncc(C)c1-c1cccc(C(=O)NCc2c(C)c(Br)c(C)[nH]c2=O)c1C [Example 147, N-[(5-bromo-4,6-dimethyl-2-oxo-1,2-dihydropyridin-3-yl)methyl]-3-(1-ethyl-4-methyl-1H-pyrazol-5-yl)-2-methylbenzamide] | – | 178 µM | > 200 µM
Cc1cc(C)c(CNC(=O)c2cc(-c3ccc(N4CCN(C)CC4)nc3)cc(-c3ccnn3C)c2C)c(=O)[nH]1 [Example 149, N-[(4,6-dimethyl-2-oxo-1,2-dihydropyridin-3-yl)methyl]-2-methyl-5-[6-(4-methylpiperazin-1-yl)pyridin-3-yl]-3-(1-methyl-1H-pyrazol-5-yl)benzamide] | – | 0.0342 µM | 0.198 µM
Cc1cc(C)c(CNC(=O)c2cc(-c3ccc(CN4CCOCC4)cc3)cc(-c3ccnn3C)c2C)c(=O)[nH]1 [Example 150, N-[(4,6-dimethyl-2-oxo-1,2-dihydropyridin-3-yl)methyl]-4-methyl-5-(1-methyl-1H-pyrazol-5-yl)-4′-(morpholin-4-ylmethyl)bi-phenyl-3-carboxamide] | – | 0.113 µM | 0.679 µM

Next, values leading:

% Effect in WT EZH2 at 20 μM [1] | IC50 [2] | IC50 (EZH2PRC2 mutant Y641N) | SMILES
94.88% | 0.45 µM | – | Cc1cc(C)c(CNC(=O)c2cc(Cl)cc(-c3ccnn3C)c2C)c(=O)[nH]1 [Example 5, 5-chloro-N-[(4,6-dimethyl-2-oxo-1,2-dihydropyridin-3-yl)methyl]-2-methyl-3-(1-methyl-1H-pyrazol-5-yl)benzamide]
93.582% | 1.63 µM | – | Cc1cc(C)c(CNC(=O)c2cccc(OC(C)C)c2Cl)c(=O)[nH]1 [Example 46, 2-chloro-N-[(4,6-dimethyl-2-oxo-1,2-dihydropyridin-3-yl)methyl]-3-isopropoxy-benzamide]
– | 1.81 µM | 19.8 µM | CCOc1cccc(C(=O)NCc2c(C)cc(C)[nH]c2=O)c1C [Example 48, N-[(4,6-dimethyl-2-oxo-1,2-dihydropyridin-3-yl)methyl]-3-ethoxy-2-methyl-benzamide]
– | 3.98 µM | 50.4 µM | COc1cccc(C(=O)NCc2c(C)cc(C)[nH]c2=O)c1C [Example 60, N-[(4,6-dimethyl-2-oxo-1,2-dihydropyridin-3-yl)methyl]-3-methoxy-2-methylbenz-amide]
71.459% | 4.51 µM | – | Cc1cc(C)c(CNC(=O)c2ccnc(OC(C)C)c2Cl)c(=O)[nH]1 [Example 65, 3-chloro-N-[(4,6-dimethyl-2-oxo-1,2-dihydropyridin-3-yl)methyl]-2-isopropoxyiso-nicotinamide]
76.288% | 4.88 µM | – | COc1cccc(C(=O)NCc2c(C)cc(C)[nH]c2=O)c1Br [Example 66, 2-bromo-N-[(4,6-dimethyl-2-oxo-1,2-dihydropyridin-3-yl)methyl]-3-methoxybenza-mide]
69.830% | 7.79 µM | – | Cc1cc(C)c(CNC(=O)c2nccc(OC(C)C)c2C)c(=O)[nH]1 [Example 82, N-[(4,6-dimethyl-2-oxo-1,2-dihydropyridin-3-yl)methyl]-4-isopropoxy-3-methylpyridine-2-carboxamide]
64.416% | 9.38 µM | – | Cc1cc(C)c(CNC(=O)c2c(F)ccc(OC(C)C)c2Cl)c(=O)[nH]1 [Example 86, 2-chloro-N-[(4,6-dimethyl-2-oxo-1,2-dihydropyridin-3-yl)methyl]-6-fluoro-3-isopropoxy-benzamide]
43.834% | 27.1 µM | – | COc1c(OC(C)C)cccc1C(=O)NCc1c(C)cc(C)[nH]c1=O [Example 113, N-[(4,6-dimethyl-2-oxo-1,2-dihydropyridin-3-yl)methyl]-3-isopropoxy-2-methoxy-benzamide]
44.087% | 37.4 µM | – | COc1ccc(OC)c(C(=O)NCc2c(C)cc(C)[nH]c2=O)c1Cl [Example 119, 2-chloro-N-[(4,6-dimethyl-2-oxo-1,2-dihydropyridin-3-yl)methyl]-3,6-dimethoxy-benzamide]
35.052% | 53.3 µM | – | COc1ccc(C(=O)NCc2c(C)cc(C)[nH]c2=O)c(Cl)c1OC [Example 127, 2-chloro-N-[(4,6-dimethyl-2-oxo-1,2-dihydropyridin-3-yl)methyl]-3,4-dimethoxy-benzamide]
